From ChEMBL document CHEMBL6092189, “Synthesis of kanamycin-azole hybrids and investigation of their antifungal activities” (Bioorg Med Chem, 2024)
In brackets after ≈: the same amount, converted by molar mass. Activity calls are given as the source filed them. No cut-off for these calls is given here.

How the values were obtained:
Escherichia coli = assay: Antibacterial activity against Escherichia coli ATCC 25922 assessed as inhibition of bacterial growth incubated for 18 hrs by two-fold dilution method; assay type: functional
Candida albicans [1] = assay: Antifungal activity against Candida albicans MYA2876 assessed as inhibition of fungal growth incubated for 48 hrs by two-fold dilution method; assay type: functional
Candida parapsilosis [2] = assay: Antifungal activity against azole-resistant Candida parapsilosis Cas08-0490 assessed as inhibition of fungal growth incubated for 48 hrs by two-fold dilution method; assay type: functional; conditions: Lodderomyces parapsilosis
Diutina rugosa [3] = assay: Antifungal activity against Candida rugosa 95-967 assessed as inhibition of fungal growth incubated for 48 hrs by two-fold dilution assay; assay type: functional
[4] = Cytotoxicity against human HeLa cells assessed as reduction in cell viability incubated for 24 hrs by MTT assay; assay type: toxicity, cell-based
Cryptococcus neoformans [5] = assay: Antifungal activity against Cryptococcus neoformans H99 assessed as inhibition of fungal growth incubated for 48 hrs by two-fold dilution method; assay type: functional
Candida albicans [6] = assay: Antifungal activity against azole-resistant Candida albicans 64124 assessed as inhibition of fungal growth incubated for 48 hrs by two-fold dilution method; assay type: functional
Candida tropicalis [7] = assay: Antifungal activity against Candida tropicalis 95-41 assessed as inhibition of fungal growth incubated for 48 hrs by two-fold dilution assay; assay type: functional
Cryptococcus neoformans [8] = assay: Antifungal activity against Cryptococcus neoformans VR-54 assessed as inhibition of fungal growth incubated for 48 hrs by two-fold dilution assay; assay type: functional
Staphylococcus aureus = assay: Antibacterial activity against Staphylococcus aureus ATCC 25923 assessed as inhibition of bacterial growth incubated for 18 hrs by two-fold dilution method; assay type: functional
Candida albicans [9] = assay: Antifungal activity against azole-resistant Candida albicans 64124 assessed as fractional inhibitory concentration index incubated for 48 hrs in presence of kanamycin by microdilution checkerboard assay; assay type: functional
Cryptococcus neoformans [10] = assay: Antifungal activity against Cryptococcus neoformans H99 assessed as fractional inhibitory concentration index incubated for 48 hrs in presence of kanamycin by microdilution checkerboard assay; assay type: functional
Cryptococcus neoformans [11] = assay: Antifungal activity against Cryptococcus neoformans VR-54 assessed as fractional inhibitory concentration index incubated for 48 hrs in presence of kanamycin by microdilution checkerboard assay; assay type: functional
Candida albicans [12] = assay: Antifungal activity against Candida albicans MYA2876 assessed as fractional inhibitory concentration index incubated for 48 hrs in presence of kanamycin by microdilution checkerboard assay; assay type: functional
Diutina rugosa [13] = assay: Antifungal activity against Candida rugosa 95-967 assessed as fractional inhibitory concentration index incubated for 48 hrs in presence of kanamycin by microdilution checkerboard assay; assay type: functional
Candida tropicalis [14] = assay: Antifungal activity against Candida tropicalis 95-41 assessed as fractional inhibitory concentration index incubated for 48 hrs in presence of kanamycin by microdilution checkerboard assay; assay type: functional
Candida parapsilosis [15] = assay: Antifungal activity against azole-resistant Candida parapsilosis Cas08-0490 assessed as fractional inhibitory concentration index incubated for 48 hrs in presence of kanamycin by microdilution checkerboard assay; assay type: functional
Cell membrane [16] = assay: Induction of membrane permeabilization in Candida albicans 64124 assessed as pore formation by measuring increase in fluorescence intensity at 1/4X MIC measured after 5 mins by SYTOX Green dye based fluorescence analysis
Cell membrane [17] = assay: Induction of membrane permeabilization in Candida rugosa 95-967 assessed as pore formation by measuring fluorescence intensity at 256 ug/ml measured after 25 mins by SYTOX Green dye based fluorescence analysis; assay type: subcellular; conditions: Diutina rugosa, dose 256.0 µg/ml
Cell membrane [18] = assay: Induction of membrane permeabilization in Candida albicans MYA2876 assessed as pore formation by measuring increase in fluorescence intensity at 1/4X MIC measured after 5 mins by SYTOX Green dye based fluorescence analysis
Cell membrane [19] = assay: Induction of membrane permeabilization in azole-resistant Candida parapsilosis Cas08-0490 assessed as pore formation by measuring fluorescence intensity at 256 ug/ml measured after 25 mins by SYTOX Green dye based fluorescence analysis; assay type: subcellular; conditions: dose 256.0 µg/ml

| Structure (SMILES) | MIC (Escherichia coli) | MIC (Candida albicans [1]) | MIC (Candida parapsilosis [2]) | MIC (Diutina rugosa [3]) | IC50 at 24 h [4] | MIC (Cryptococcus neoformans [5]) | MIC (Candida albicans [6]) | MIC (Candida tropicalis [7]) | MIC (Cryptococcus neoformans [8]) | MIC (Staphylococcus aureus) | also measured |
| --- | --- | --- | --- | --- | --- | --- | --- | --- | --- | --- | --- |
| Cl.Cl.Cl.Cl.NC[C@H]1O[C@H](O[C@H]2[C@H](O)[C@@H](O[C@H]3O[C@H](Cn4cc(CNC(=O)c5ccc(Cl)cc5Cl)nn4)[C@@H](O)[C@H](N)[C@H]3O)[C@H](N)C[C@@H]2N)[C@H](O)[C@@H](O)[C@@H]1O | 128 µg/mL | ≥ 256 µg/mL | ≥ 256 µg/mL | ≥ 256 µg/mL | > 100 µg/mL | ≥ 256 µg/mL | ≥ 256 µg/mL | ≥ 256 µg/mL | ≥ 256 µg/mL | 128 µg/mL | – |
| Cl.Cl.Cl.Cl.NC[C@H]1O[C@H](O[C@H]2[C@H](O)[C@@H](O[C@H]3O[C@H](Cn4cc(COC(Cn5cncn5)c5ccc(F)cc5F)nn4)[C@@H](O)[C@H](N)[C@H]3O)[C@H](N)C[C@@H]2N)[C@H](O)[C@@H](O)[C@@H]1O (stereo partly drawn) | ≥ 256 µg/mL | ≥ 256 µg/mL | ≥ 256 µg/mL | ≥ 256 µg/mL | > 100 µg/mL | ≥ 256 µg/mL | ≥ 256 µg/mL | ≥ 256 µg/mL | ≥ 256 µg/mL | ≥ 256 µg/mL | – |
| Cl.Cl.Cl.Cl.NC[C@H]1O[C@H](O[C@H]2[C@H](O)[C@@H](O[C@H]3O[C@H](Cn4cc(CNC(=O)c5ccc(Cl)cc5)nn4)[C@@H](O)[C@H](N)[C@H]3O)[C@H](N)C[C@@H]2N)[C@H](O)[C@@H](O)[C@@H]1O | 128 µg/mL | ≥ 256 µg/mL | ≥ 256 µg/mL | ≥ 256 µg/mL | > 100 µg/mL | 128 µg/mL | ≥ 256 µg/mL | ≥ 256 µg/mL | ≥ 256 µg/mL | 64 µg/mL | – |
| OC(Cn1cncn1)c1ccc(Cl)cc1Cl (stereo not drawn) | – | 64 µg/mL (≈ 248 µM) | 64 µg/mL (≈ 248 µM) | 64 µg/mL (≈ 248 µM) | – | 64 µg/mL (≈ 248 µM) | 128 µg/mL (≈ 496 µM) | 32 µg/mL (≈ 124 µM) | 32 µg/mL (≈ 124 µM) | – | fractional inhibitory concentration index (FICI) (Candida albicans [9]): 1; fractional inhibitory concentration index (FICI) (Cryptococcus neoformans [10]): 1; fractional inhibitory concentration index (FICI) (Cryptococcus neoformans [11]): 1; fractional inhibitory concentration index (FICI) (Candida albicans [12]): 1; fractional inhibitory concentration index (FICI) (Diutina rugosa [13]): 2.25; fractional inhibitory concentration index (FICI) (Candida tropicalis [14]): 1.5; fractional inhibitory concentration index (FICI) (Candida parapsilosis [15]): 2 |
| Cl.Cl.Cl.Cl.NC[C@H]1O[C@H](O[C@H]2[C@H](O)[C@@H](O[C@H]3O[C@H](Cn4cc(COC(Cn5ccnc5)c5ccc(F)cc5F)nn4)[C@@H](O)[C@H](N)[C@H]3O)[C@H](N)C[C@@H]2N)[C@H](O)[C@@H](O)[C@@H]1O (stereo partly drawn) | 64 µg/mL | 128 µg/mL | ≥ 256 µg/mL | ≥ 256 µg/mL | > 100 µg/mL | 64 µg/mL | 128 µg/mL | 8 µg/mL | 128 µg/mL | 64 µg/mL | – |
| Cl.Cl.Cl.Cl.NC[C@H]1O[C@H](O[C@H]2[C@H](O)[C@@H](O[C@H]3O[C@H](Cn4cc(CNC(=O)c5ccccc5Cl)nn4)[C@@H](O)[C@H](N)[C@H]3O)[C@H](N)C[C@@H]2N)[C@H](O)[C@@H](O)[C@@H]1O | 128 µg/mL | ≥ 256 µg/mL | ≥ 256 µg/mL | ≥ 256 µg/mL | > 100 µg/mL | 64 µg/mL | ≥ 256 µg/mL | ≥ 256 µg/mL | ≥ 256 µg/mL | ≥ 256 µg/mL | – |
| Cl.Cl.Cl.Cl.NC[C@H]1O[C@H](O[C@H]2[C@H](O)[C@@H](O[C@H]3O[C@H](Cn4cc(COC(Cn5cncn5)c5ccc(Cl)cc5Cl)nn4)[C@@H](O)[C@H](N)[C@H]3O)[C@H](N)C[C@@H]2N)[C@H](O)[C@@H](O)[C@@H]1O (stereo partly drawn) | ≥ 256 µg/mL | 16 µg/mL | ≥ 256 µg/mL | ≥ 256 µg/mL | > 100 µg/mL | 16 µg/mL | 16 µg/mL | 32 µg/mL | 32 µg/mL | 128 µg/mL | Activity (Cell membrane [16]): Active; Activity (Cell membrane [17]): inactive; Activity (Cell membrane [18]): Active; Activity (Cell membrane [19]): inactive |
| NC[C@H]1O[C@H](O[C@H]2[C@H](O)[C@@H](O[C@H]3O[C@H](CO)[C@@H](O)[C@H](N)[C@H]3O)[C@H](N)C[C@@H]2N)[C@H](O)[C@@H](O)[C@@H]1O [KANAMYCIN] | 4 µg/mL (≈ 8.26 µM) | ≥ 256 µg/mL | ≥ 256 µg/mL | ≥ 256 µg/mL | – | 128 µg/mL (≈ 264 µM) | ≥ 256 µg/mL | ≥ 256 µg/mL | ≥ 256 µg/mL | 1 µg/mL (≈ 2.06 µM) | – |
| OC(Cn1cncn1)(Cn1cncn1)c1ccc(F)cc1F [FLUCONAZOLE] | – | 128 µg/mL (≈ 418 µM) | 16 µg/mL (≈ 52.2 µM) | 8 µg/mL (≈ 26.1 µM) | – | 1 µg/mL (≈ 3.27 µM) | ≥ 256 µg/mL | 2 µg/mL (≈ 6.53 µM) | 1 µg/mL (≈ 3.27 µM) | – | – |
| Cl.Cl.Cl.Cl.NC[C@H]1O[C@H](O[C@H]2[C@H](O)[C@@H](O[C@H]3O[C@H](Cn4cc(COC(Cn5ccnc5)c5ccc(Cl)cc5Cl)nn4)[C@@H](O)[C@H](N)[C@H]3O)[C@H](N)C[C@@H]2N)[C@H](O)[C@@H](O)[C@@H]1O (stereo partly drawn) | ≥ 256 µg/mL | 128 µg/mL | ≥ 256 µg/mL | ≥ 256 µg/mL | > 100 µg/mL | 64 µg/mL | 32 µg/mL | 64 µg/mL | 64 µg/mL | 128 µg/mL | Activity (Cell membrane [16]): Active; Activity (Cell membrane [17]): inactive; Activity (Cell membrane [18]): Active; Activity (Cell membrane [19]): inactive |
